Common to all, as to type: cell-based
Experiment [1] concerns HK-2 cells. As to the kind of experiment: Inhibition of proliferation of HK-2 cells (normal cells; CCK8 or CTG). Particulars: Homo sapiens, maximum concentration 10 μM, 5-fold dilution. As for the experimental part:
(1) HK-2 cells in the logarithmic growth phase were digested with 0.25% trypsin and counted. The cells were inoculated into 96-well plates at 2000 cells per well, and the 96-well plates were placed and cultured in an incubator containing 5% CO2 at 37° C. for 12 h.
(2) Six concentration gradients for the compound to be tested (with the maximum drug concentration of 10 μM and 5-fold dilution) were set. After the cells adhered to the wall, the compounds to be tested were serially diluted with DMSO, then diluted with 1640 complete medium to reach a concentration 1000 times the final concentration, and added to the corresponding wells.
(§1) (3) After the corresponding concentrations of the compounds to be tested were added, the plates were incubated in an incubator with 5% carbon dioxide at 37° C., and then the cell viability rate at each drug concentration was determined by CCK8 or CTG method. In addition, the IC50 value was calculated.

The test system of experiment [2] is A549 cells. The experiment in a line: Inhibition of proliferation of A549 cells (CCK8 or CTG). Particulars: Homo sapiens, maximum concentration 10 μM, 5-fold dilution. As to the method: (1) A549 cells in the logarithmic growth phase were digested with 0.25% trypsin and counted. The cells were inoculated into 96-well plates at 2000 cells per well, and the 96-well plates were placed in an incubator containing 5% CO2 at 37° C. for 12 h of culture.
(2) Six concentration gradients for the compounds to be tested (with the maximum drug concentration of 10 μM and 5-fold dilution) were set. After the cells adhered to the wall, the compounds to be tested were serially diluted with DMSO, then diluted with 1640 complete medium to reach a concentration 1000 times the final concentration, and added to the corresponding wells.
as §1

Experiment [3] deals with HL60 cells. As to the kind of experiment: Inhibition of proliferation of HL60 tumor cells (CCK8 or CTG). Particulars: Homo sapiens, HL-60. As for the experimental part: The effect of the compound of the present disclosure on the proliferation of tumor cells was determined using the following method. The HL60 cells used in the method were purchased from Nanjing Kebai Biotechnology Co., Ltd., and the kit was the Cell Counting Kit-8/CCK-8 kit of MCE Company (article number: HY—K0301, specification: 3000T).
(1) HL60 cells in logarithmic growth phase were prepared into a cell suspension. The cell suspension was added into a 96-well plate at 5000 cells/well. The 96-well cell culture plate was placed in a CO2 incubator for 4 h of incubation of suspended cells or for 12 h of incubation of adherent cells.
(2) The compounds to be tested were diluted with IMDM complete culture medium to reach a concentration twice the testing concentration, and added to the corresponding wells.
as §1

Molecules are shown by their SMILES.

The IC50 is the concentration at which inhibition is half-maximal. The low end stands for inhibition by little substance, the high end for a need for much substance.

Consider `CC(C)NC1CC(C(=O)Nc2sc3c(c2-c2nc4ccccc4s2)CCNC3)C1` (stereo not drawn) [Compound 001, N-(3-(benzo[d]thiazol-2-yl)-4,5,6,7-tetrahydrothieno[2,3-c]pyridin-2-yl)-3-(isopropylamino)cyclobutane-1-carboxamide], for which the results for the IC50 in experiment [1] and in experiment [2] were 759 nM and 0.49 nM, respectively. For the compound `CC(C)NC1CC(C(=O)Nc2sc3c(c2-c2nc4ccc(-c5ccc(N6CCNCC6)nc5)cc4s2)CCNC3)C1` (stereo not drawn) [Compound 009, 3-(isopropylamino)-N-(3-(6-(6-(piperazin-1-yl)pyridin-3-yl)benzo[d]thiazol-2-yl)-4,5,6,7-tetrahydrothieno [2,3-c]pyridin-2-yl) cyclobutane-1-carboxamide], the IC50 is less than 150 nM in experiment [3] and 0.53 nM in experiment [2].

`Cc1cn(-c2ccc3nc(-c4c(NC(=O)C5CC(NC(C)C)C5)sc5c4CCNC5)sc3c2)cn1` (stereo not drawn) [Compound 014, 3-(isopropylamino)-N-(3-(6-(4-methyl-1H-imidazol-1-yl)benzo[d]thiazol-2-yl)-4,5,6,7-tetrahydrothieno[2,3-c]pyridin-2-yl)cyclobutane-1-carboxamide] registered a half-inhibitory concentration (IC50) in experiment [3] of less than 150 nM. Regarding `CC(C)NC1CC(C(=O)Nc2sc3c(c2-c2nc4ccc(C5=CCN(C)CC5)cc4s2)CCNC3)C1` (stereo not drawn) [Compound 017, 3-(isopropylamino)-N-(3-(6-(1-methyl-1,2,3,6-tetrahydropyridin-4-yl)benzo[d]thiazol-2-yl)-4,5,6,7-tetrahydrothieno[2,3-c]pyridin-2-yl)cyclobutane-1-carboxamide], the IC50 was less than 150 nM in experiment [3] and 4.41 nM in experiment [2]. Compound `CC(C)NC1CC(C(=O)Nc2sc3c(c2-c2nc4cc(C5=CCNCC5)ccc4s2)CCNC3)C1` (stereo not drawn) [Compound 022, 3-(isopropylamino)-N-(3-(5-(1,2,3,6-tetrahydropyridin-4-yl)benzo[d]thiazol-2-yl)-4,5,6,7-tetrahydrothieno [2,3-c]pyridin-2-yl) cyclobutane-1-carboxamide] gave a half-inhibitory concentration (IC50) in experiment [3] of less than 150 nM.

Regarding `CC(C)NC1CC(C(=O)Nc2sc3c(c2-c2nc4ccc(-c5ccc(C6=CCNCC6)nc5)cc4s2)CCNC3)C1` (stereo not drawn) [Compound 047, 3-(isopropylamino)-N-(3-(6-(1′,2′,3′,6′-tetrahydro-[2, 4′-bipyridin]-5-yl)benzo [d]thiazol-2-yl)-4,5,6,7-tetrahydrothieno[2,3-c]pyridin-2-yl)cyclobutane-1-carboxamide], the concentration for half-maximal inhibition (IC50) in experiment [3] was less than 150 nM; in experiment [1] it was 1610 nM; in experiment [2], 18.3 nM.

As for `CC(C)NC1CC(C(=O)Nc2sc3c(c2-c2nc4ccc(C5=CCNCC5)cc4s2)CCNC3)C1` (stereo not drawn) [Compound 048, 3-(isopropylamino)-N-(3-(6-(1,2,3,6-tetrahydropyridin-4-yl)benzo[d]thiazol-2-yl)-4,5,6,7-tetrahydrothieno[2,3-c]pyridin-2-yl)cyclobutane-1-formylamino], the IC50 was less than 150 nM in experiment [3], 1160 nM in experiment [1] and 3.35 nM in experiment [2]. For the compound `CC(C)NC1CC(C(=O)Nc2sc3c(c2-c2nc4ccc(C5=CCNCC5)cc4s2)CCN(C2CCCC2)C3)C1` (stereo not drawn) [Compound 054, N-(6-cyclopentyl-3-(6-(1,2,3,6-tetrahydropyridin-4-yl)benzo[d]thiazol-2-yl)-4,5,6,7-tetrahydrothieno[2,3-c]pyridin-2-yl)-3-(isopropylamino)cyclobutane-1-carboxamide], it took 21.8 nM to reach half-maximal inhibition in experiment [2] (IC50). As for `CC(C)NC1CCC(C(=O)Nc2sc3c(c2-c2nc4ccc(-c5ccc(N6CCNCC6)nc5)cc4s2)CCNC3)C1` (stereo not drawn) [Compound 060, 3-(isopropylamino)-N-(3-(6-(6-(piperazin-1-yl)pyridin-3-yl)benzo[d]thiazol-2-yl)-4,5,6,7-tetrahydrothieno [2,3-c]pyridin-2-yl) cyclopentane-1-carboxamide], the values for the half-maximal inhibitory concentration (IC50) in experiment [1] and in experiment [2] were 1100 nM and 16.8 nM, respectively.

On to `CC(C)NC1CCC(C(=O)Nc2sc3c(c2-c2nc4ccc(-c5ccc(N6CCNCC6)nc5)cc4s2)CCNC3)CC1` (stereo not drawn) [Compound 069, 4-(isopropylamino)-N-(3-(6-(6-(piperazin-1-yl)pyridin-3-yl)benzo[d]thiazol-2-yl)-4,5,6,7-tetrahydrothieno [2,3-c]pyridin-2-yl) cyclohexane-1-carboxamide], for which the IC50 in experiment [3] is less than 150 nM; in experiment [1], 2440 nM; in experiment [2] it was 7.8 nM. On to `CC(C)NCCCNc1sc2c(c1-c1nc3ccc(-c4ccc(N5CCNCC5)nc4)cc3s1)CCNC2` [Compound 082, N^1-isopropyl-N^3-(3-(6-(6-(piperazin-1-yl)pyridin-3-yl)benzo[d]thiazol-2-yl)-4,5,6,7-tetrahydrothieno[2,3-c]pyridin-2-yl) propane-1,3-diamine], for which 4510 nM corresponded to half-maximal inhibition in experiment [1] (IC50). `CN(C)CCNC(=O)CNc1sc2c(c1-c1nc3ccccc3s1)CCNC2` [Compound 086, 2-((3-(benzo[d]thiazol-2-yl)-4,5,6,7-tetrahydrothieno [2,3-c]pyridin-2-yl)amino)-N-(2-(dimethylamino)ethyl)acetamide] showed a concentration for half-maximal inhibition (IC50) in experiment [1] of 7560 nM.

Regarding `COCCNC1CC(C(=O)Nc2sc3c(c2-c2nc4ccc(C5=CCNCC5)cc4s2)CCNC3)C1` (stereo not drawn) [Compound 119, 3-((2-methoxyethyl)amino)-N-(3-(6-(1,2,3,6-tetrahydropyridin-4-yl)benzo [d]thiazol-2-yl)-4,5,6,7-tetrahydrothieno[2,3-c]pyridin-2-yl)cyclobutane-1-carboxamide], in experiment [3], the 50% inhibitory concentration (IC50) was less than 150 nM. `Cc1cn(-c2ccc3sc(-c4c(NC(=O)C5CC(NC(C)C)C5)sc5c4CCNC5)nc3c2)cn1` (stereo not drawn) [Compound 121, 3-(isopropylamino)-N-(3-(5-(4-methyl-1H-imidazol-1-yl)benzo[d]thiazol-2-yl)-4,5,6,7-tetrahydrothieno [2,3-c]pyridin-2-yl) cyclobutane-1-carboxamide]: the half-inhibitory concentration (IC50) in experiment [3] was less than 150 nM; in experiment [1], 725 nM. `CC(=O)N1CCc2c(sc(NC(=O)C3CC(NC(C)C)C3)c2-c2nc3ccc(-c4ccc(N5CCNCC5)nc4)cc3s2)C1` (stereo not drawn) [Compound 122, N-(6-acetyl-3-(6-(6-(piperazin-1-yl)pyridin-3-yl)benzo[d]thiazol-2-yl)-4,5,6,7-tetrahydrothieno[2,3-c]pyridin-2-yl)-3-(isopropylamino)cyclobutane-1-carboxamide] yielded an IC50 in experiment [1] of 1040 nM. For the compound `CC(C)NC1CCC(C(=O)Nc2sc3c(c2-c2nc4ccc(Br)cc4s2)CCNC3)CC1` (stereo not drawn) [Compound 123, N-(3-(6-bromobenzo[d]thiazol-2-yl)-4,5,6,7-tetrahydrothieno[2,3-c]pyridin-2-yl)-4-(isopropylamino) cyclohexane-1-carboxamide], in experiment [1], the IC50 was 937 nM. As to `CC(C)NC1CCC(C(=O)Nc2sc3c(c2-c2nc4ccc(C5=CCNCC5)cc4s2)CCNC3)CC1` (stereo not drawn) [Compound 124, 4-(isopropylamino)-N-(3-(6-(1,2,3,6-tetrahydropyridin-4-yl)benzo[d]thiazol-2-yl)-4,5,6,7-tetrahydrothieno [2,3-c]pyridin-2-yl) cyclohexane-1-carboxamide], the half-maximal inhibitory concentration (IC50) amounted to 3260 nM in experiment [1] and 7.37 nM in experiment [2].

As to `CNCCNC(=O)C(=O)Nc1sc2c(c1-c1nc3ccc(C4=CCNCC4)cc3s1)CCNC2` [Compound 125, N^1-(2-(methylamino)ethyl)-N^2-(3-(6-(1,2,3,6-tetrahydropyridin-4-yl)benzo [d]thiazol-2-yl)-4,5,6,7-tetrahydrothieno[2,3-c]pyridin-2-yl)oxalamide], the IC50 was 11100 nM in experiment [1] and 65.2 nM in experiment [2]. Turning to `CN1CCN(c2sc3c(c2-c2nc4ccc(-c5ccc(N6CCNCC6)nc5)cc4s2)CCNC3)CC1` [Compound 126, 2-(2-(4-methylpiperazin-1-yl)-4,5,6,7-tetrahydrothieno [2,3-c]pyridin-3-yl)-6-(6-(piperazin-1-yl)pyridin-3-yl)benzo[d]thiazole], inhibition in experiment [1] was half-maximal at 1180 nM (IC50). Turning to `CC(C)NC1CC(C(=O)N(C)c2sc3c(c2-c2nc4ccc(-c5ccc(N6CCNCC6)nc5)cc4s2)CCNC3)C1` (stereo not drawn) [Compound 134, 3-(isopropylamino)-N-methyl-N-(3-(6-(6-(piperazin-1-yl)pyridin-3-yl)benzo [d]thiazol-2-yl)-4,5,6,7-tetrahydrothieno[2,3-c]pyridin-2-yl)cyclobutane-1-carboxamide], the IC50 in experiment [2] was found to be 0.66 nM. On to `CC(=O)NC1CC(C(=O)Nc2sc3c(c2-c2nc4ccc(C5=CCN(C(C)=O)CC5)cc4s2)CCNC3)C1` (stereo not drawn) [Compound 141], for which the IC50 in experiment [1] turned out to be 1460 nM. For the compound `CC(C)NCCC(=O)Nc1sc2c(c1-c1nc(-c3ccccc3)cs1)CCNC2` [Compound b, reference compound], the IC50 in experiment [1] was found to be 242 nM; in experiment [2], 98.3 nM.

These data come from patent US20260274859A1, “FUSED POLYCYCLIC DERIVATIVE AND USE THEREOF” (ZHEJIANG HISUN PHARMACEUTICAL CO., LTD., priority 2023, published 2026).
